# Laboratory results reported in patent US20150208649A1, “NOVEL COMPOSITIONS COMPRISING P-HYDROXYBENZYLAMINE” (DSM IP ASSETS B.V., priority 2012, published 2015).
# Columns and labels:
# Assay in all cases: MIC, agar dilution method according to DIN 58 940
# Format in all cases: cell-based
# [1] = test system: Candida albicans (C. albicans) ATCC 10231; settings: for MIC: Candida albicans, ATCC10231, single compound; for MIC mix: 78 h; for ratio [MIC (single)/(MIC (mixture)]): >1 indicates a synergistic effect
# Experimental: (§1) The antimicrobial activity was assessed by determination of the Minimum Inhibitory Concentration (MIC) using the agar dilution method according to DIN 58 940 at the Labor L+SAG, D-Bad Bocklet-Grossenbrach.
# (§2) Culture plates with a diameter of 5.5 cm were prepared with fresh, kept liquid (50° C.) Mueller-Hinton Agar (double concentrated, Merck 1.05437)/aqua purificata comprising the compound/compound mixtures in the concentrations indicated in Table 1 according to standard methods. After solidifying and drying (about 1 h at 36° C.), the culture plates were inoculated with 1 μl of a suspension of the respective microorganism with the colony forming unit as outlined in table 1. The inoculated plates were then incubated at 36° C. The MIC's (i.e. the concentrations where still no growth could be observed) were determined after 18 h for E. coli, P. aeruginosa and S. aureus; after 48 h for P. acnes and after 78 h for A. brasiliensis and C. albicans. Per sample two culture plates were prepared. As control incubated and non-incubated cultures were used.
# (§3) The suspensions of the microorganisms No. 1-4 were prepared by homogeneous suspension of 3-5 colonies of the same morphology in physiological NaCl-solution. The suspensions were adjusted such, that the haze corresponded to the Mac Farland standard 1.0 (about 3.0*10^8 KBE*/ml). For the preparation of the suspensions of the microorganisms 5 and 6, the microorganisms have been taken with a sterile swab and diluted in an amount of physiological NaCl solution such, that the haze corresponded to the Mac Farland standard 1.0. Afterwards the suspensions of the microorganisms 1 and 3-6 have been further diluted with physiological NaCl-solution in a ratio of 1:10. The colony count was determined using a spiral plater system (see table 2).
# [2] = test system: Pseudomonas aeruginosa (P. aeruginosa) ATCC 9027; settings: for MIC: Pseudomonas aeruginosa, ATCC9027, single compound; for MIC mix: 18 h; for ratio [MIC (single)/(MIC (mixture)]): >1 indicates a synergistic effect
# Experimental: as §1, §2, §3
# [3] = test system: Aspergillus brasiliensis (A. brasiliensis) ATCC 16404; settings: for MIC: Aspergillus brasiliensis, ATCC16404, single compound; for MIC mix: 78 h; for ratio [MIC (single)/(MIC (mixture)]): >1 indicates a synergistic effect
# Experimental: as §1, §2, §3
# [4] = test system: Propionibacterium acnes (P. acnes) ATCC 11828; settings: for MIC: Cutibacterium acnes, ATCC11828, single compound; for MIC mix: 48 h; for ratio [MIC (single)/(MIC (mixture)]): >1 indicates a synergistic effect
# Experimental: as §1, §2, §3
# [5] = test system: Escherichia coli (E. coli) ATCC 8739; settings: for MIC: Escherichia coli, ATCC8739, single compound; for MIC mix: 18 h; for ratio [MIC (single)/(MIC (mixture)]): >1 indicates a synergistic effect
# Experimental: as §1, §2, §3
# [6] = test system: Staphylococcus aureus (S. aureus) ATCC 6538; settings: for MIC: Staphylococcus aureus, ATCC6538, single compound; for MIC mix: 18 h; for ratio [MIC (single)/(MIC (mixture)]): >1 indicates a synergistic effect
# Experimental: as §1, §2, §3
# [7] = concentration of the component in mixture pHBA/MI
# [8] = concentration of the component in mixture pHBA/MP
# [9] = concentration of the component in mixture pHBA/PE
# [10] = single compound, 78 h at 36° C.
# [11] = single compound, 18 h at 36° C.
structure (smiles),measurement,setting,value
"NCc1ccc(O)cc1 [pHBA, p-Hydroxybenzylamine]",MIC,[1]; 78 h at 36° C.,5270 µg/mL
same,MIC mix,[1]; [7],980 µg/mL
same,MIC mix,[1]; [8],1580 µg/mL
same,MIC mix,[1]; [9],2340 µg/mL
same,ratio [MIC (single)/(MIC (mixture)]),[1]; mixture pHBA/MI,5.38
same,ratio [MIC (single)/(MIC (mixture)]),[1]; mixture pHBA/MP,3.34
same,ratio [MIC (single)/(MIC (mixture)]),[1]; mixture pHBA/PE,2.25
same,MIC,[2]; 18 h at 36° C.,5270 µg/mL
same,MIC mix,[2]; [7],650 µg/mL
same,MIC mix,[2]; [8],2400 µg/mL
same,MIC mix,[2]; [9],3510 µg/mL
same,ratio [MIC (single)/(MIC (mixture)]),[2]; mixture pHBA/MI,8.11
same,ratio [MIC (single)/(MIC (mixture)]),[2]; mixture pHBA/MP,2.20
same,ratio [MIC (single)/(MIC (mixture)]),[2]; mixture pHBA/PE,1.50
same,MIC,[3]; 78 h at 36° C.,5270 µg/mL
same,MIC mix,[3]; [7],980 µg/mL
same,MIC mix,[3]; [8],1050 µg/mL
same,MIC mix,[3]; [9],2340 µg/mL
same,ratio [MIC (single)/(MIC (mixture)]),[3]; mixture pHBA/MI,5.38
same,ratio [MIC (single)/(MIC (mixture)]),[3]; mixture pHBA/MP,5.02
same,ratio [MIC (single)/(MIC (mixture)]),[3]; mixture pHBA/PE,2.25
same,MIC,[4]; 48 h at 36° C.,7900 µg/mL
same,MIC mix,[4]; [7],650 µg/mL
same,MIC mix,[4]; [8],3560 µg/mL
same,MIC mix,[4]; [9],5270 µg/mL
same,ratio [MIC (single)/(MIC (mixture)]),[4]; mixture pHBA/MI,12.15
same,ratio [MIC (single)/(MIC (mixture)]),[4]; mixture pHBA/MP,2.22
same,ratio [MIC (single)/(MIC (mixture)]),[4]; mixture pHBA/PE,1.50
same,MIC,[5]; 18 h at 36° C.,5270 µg/mL
same,MIC mix,[5]; [7],980 µg/mL
same,MIC mix,[5]; [8],1580 µg/mL
same,MIC mix,[5]; [9],3510 µg/mL
same,ratio [MIC (single)/(MIC (mixture)]),[5]; mixture pHBA/MI,5.38
same,ratio [MIC (single)/(MIC (mixture)]),[5]; mixture pHBA/MP,3.34
same,ratio [MIC (single)/(MIC (mixture)]),[5]; mixture pHBA/PE,1.50
same,MIC,[6]; 18 h at 36° C.,5270 µg/mL
same,MIC mix,[6]; [7],2200 µg/mL
same,MIC mix,[6]; [8],3560 µg/mL
same,MIC mix,[6]; [9],7900 µg/mL
same,ratio [MIC (single)/(MIC (mixture)]),[6]; mixture pHBA/MI,2.4
same,ratio [MIC (single)/(MIC (mixture)]),[6]; mixture pHBA/MP,1.48
same,ratio [MIC (single)/(MIC (mixture)]),[6]; mixture pHBA/PE,0.67
"Cn1sccc1=O [MI, Methylisothiazolinone, reference compound]",MIC mix,[1]; [7],20 µg/mL
same,ratio [MIC (single)/(MIC (mixture)]),[1]; mixture pHBA/MI,1.50
same,MIC single,[1]; [10],30 µg/mL
same,MIC mix,[2]; [7],<10 µg/mL
same,ratio [MIC (single)/(MIC (mixture)]),[2]; mixture pHBA/MI,>100
same,MIC single,[2]; [11],40 µg/mL
same,MIC mix,[3]; [7],20 µg/mL
same,ratio [MIC (single)/(MIC (mixture)]),[3]; mixture pHBA/MI,1.50
same,MIC single,[3]; [10],30 µg/mL
same,MIC single,"[4]; single compound, 48 h at 36° C.",30 µg/mL
same,MIC mix,[5]; [7],20 µg/mL
same,ratio [MIC (single)/(MIC (mixture)]),[5]; mixture pHBA/MI,1.00
same,MIC single,[5]; [11],20 µg/mL
same,MIC mix,[6]; [7],40 µg/mL
same,ratio [MIC (single)/(MIC (mixture)]),[6]; mixture pHBA/MI,1.75
same,MIC single,[6]; [11],70 µg/mL
"COC(=O)c1ccc(O)cc1 [MP, Methylparabene, reference compound]",MIC,[1]; 78 h at 36° C.,590 µg/mL
same,MIC mix,[1]; [8],390 µg/mL
same,ratio [MIC (single)/(MIC (mixture)]),[1]; mixture pHBA/MP,1.51
same,MIC,[2]; 18 h at 36° C.,2000 µg/mL
same,MIC mix,[2]; [8],590 µg/mL
same,ratio [MIC (single)/(MIC (mixture)]),[2]; mixture pHBA/MP,3.39
same,MIC,[3]; 78 h at 36° C.,390 µg/mL
same,MIC mix,[3]; [8],260 µg/mL
same,ratio [MIC (single)/(MIC (mixture)]),[3]; mixture pHBA/MP,1.50
same,MIC,[4]; 48 h at 36° C.,1330 µg/mL
same,MIC mix,[4]; [7],<10 µg/mL
same,MIC mix,[4]; [8],890 µg/mL
same,ratio [MIC (single)/(MIC (mixture)]),[4]; mixture pHBA/MI,>100
same,ratio [MIC (single)/(MIC (mixture)]),[4]; mixture pHBA/MP,1.49
same,MIC,[5]; 18 h at 36° C.,890 µg/mL
same,MIC mix,[5]; [8],390 µg/mL
same,ratio [MIC (single)/(MIC (mixture)]),[5]; mixture pHBA/MP,2.28
same,MIC,[6]; 18 h at 36° C.,2000 µg/mL
same,MIC mix,[6]; [8],890 µg/mL
same,ratio [MIC (single)/(MIC (mixture)]),[6]; mixture pHBA/MP,2.25
